# Measurements taken from PubChem BioAssay (NCI).
# “And” between values parts separate entries of the source, which are not always exact repeats. Equal entries are not always repeated.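 1) Cells in 96-well plates. 2) Compound, 48 h, 5 concentrations. 3) Linear interpolation between surrounding doses. 4) Unreached endpoint = highest concentration. Here, GI50 denotes the concentration required for 50% inhibition of growth. TGI marks complete inhibition of growth.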
# How the values were obtained:
# Assay in all cases: inhibition of tumour cell growth, NCI panel, 48 h
# [1] = test system: CCRF-CEM leukemia
# [2] = test system: SF-295 CNS
# [3] = test system: HL-60(TB) leukemia
# [4] = test system: U251 CNS
# [5] = test system: HCT-15 colon
# [6] = test system: SW-620 colon
# [7] = test system: RPMI-8226 leukemia
# [8] = test system: RXF 393 renal
# [9] = test system: EKVX NSCLC
SMILES,TGI [1],TGI [2],TGI [3],TGI [4],TGI [5],TGI [6],TGI [7],TGI [8] [µM],TGI [9],GI50 [1] [µM],GI50 [2] [µM],GI50 [4] [µM],GI50 [5] [µM],GI50 [6] [µM],GI50 [9] [µM],GI50 [7] [µM]
CC1CC(=O)Nc2ccc(Cl)cc2N1C(=O)CN1CCC(CCCCN(C)C)CC1 (centres undefined),> 100 µM,> 100 µM,> 100 µM,> 100 µM,> 100 µM,> 100 µM,> 100 µM,,,,,,,,,
O=C1OC(CC(=O)c2ccc(F)cc2)C(Cl)=C1Cl (centres undefined),> 100 µM,> 100 µM,62 µM,34.3 µM,35.5 µM,46.2 µM,> 100 µM,37.5,> 100 µM,,,,,,,
O=C(CCC(=O)Nc1ccccc1C(F)(F)F)N/N=C1\C(=N\NC(=O)CCC(=O)Nc2ccccc2C(F)(F)F)C(c2ccc3c(c2)OCO3)Oc2ccccc21 (centres undefined),66.3 µM,> 100 µM,> 100 µM,68.5 µM,> 100 µM,> 100 µM,> 100 µM,> 71.7,> 100 µM,,,,,,,
c1ccc2c(c1)[nH]c1cnc3c4ncccc4[nH]c3c12,> 100 µM,> 100 µM,> 100 µM,> 100 µM,> 100 µM,> 100 µM,> 100 µM,> 100,> 100 µM,,,,,,,
O=C1c2c(O)cccc2C(C(=O)CCCCCC(=O)C2c3cccc(O)c3C(=O)c3c(O)cccc32)c2cccc(O)c21,25 µM and 13.6 µM,25 µM and 3.74 µM,5.35 µM and 4.77 µM,3.11 µM and 8.21 µM,5.44 µM and 14.4 µM,25 µM and 14.5 µM,2.1 µM and 4.41 µM,,3.68 µM and 19.5 µM,2.05,1.48,2.5,7.25,5.44,5.64,1.55
O=C(Nc1ccccc1[N+](=O)[O-])/C(=N/Nc1cccc(Cl)c1)c1c(O)c2ccccc2oc1=O,87.5 µM,> 100 µM,,,> 100 µM,> 100 µM,,> 100,> 100 µM,,,,,,,
Nc1cn(C2OC(CC(c3ccccc3)(c3ccccc3)c3ccccc3)C(O)C2O)c(=O)[nH]c1=O (centres undefined),63.1 µM,99.7 µM,36.9 µM,32.1 µM,33.3 µM,28 µM,42 µM,21.4,> 100 µM,,,,,,,
CCOC(=O)c1oc2c(OC)ccc3c2c1CCC3,> 100 µM,> 100 µM,> 100 µM,> 100 µM,> 100 µM,> 100 µM,> 100 µM,> 100,> 100 µM,,,,,,,
NCCOc1ccc(/C(=C(/Cl)c2ccccc2)c2ccccc2)cc1,24.6 µM,28.9 µM,7.61 µM,23.7 µM,19.1 µM,16.1 µM,11 µM,13.8,30.1 µM,,,,,,,
NC1=NN(c2ccccc2)C(=O)C1C(=O)C(=O)Nc1ccc(Cl)cc1 (centres undefined),> 100 µM,> 100 µM,> 100 µM,> 100 µM,> 100 µM,> 100 µM,> 100 µM,> 100,> 100 µM,,,,,,,
N#CCCN(CCC#N)c1ccc(/C=C(/NC(=O)c2cc([N+](=O)[O-])ccc2Cl)C(=O)N=[N+]=[N-])cc1,> 100 µM,> 100 µM,> 100 µM,> 100 µM,> 100 µM,> 100 µM,> 100 µM,> 100,> 100 µM,,,,,,,
O/N=C1/CCC/C1=C\c1ccccc1,> 100 µM,> 100 µM,> 100 µM,> 100 µM,> 100 µM,> 100 µM,> 100 µM,> 100,> 100 µM,,,,,,,
CCCCCCCCCCC(=O)CCCCCCC(=O)O,73.8 µM,48.7 µM,18.7 µM,86.1 µM,28 µM,55.7 µM,32.3 µM,91.5,> 100 µM,,,,,,,
O=S(=O)(C1=CC(S(=O)(=O)c2ccccc2)COC1)c1ccccc1 (centres undefined),> 100 µM,> 100 µM,> 100 µM,> 100 µM,> 100 µM,> 100 µM,> 100 µM,> 100,> 100 µM,,,,,,,
Cc1ccc2nc(NC(=O)C(=O)C(C(=O)c3ccc4ccccc4c3)C3OC(=O)c4ccccc43)sc2c1 (centres undefined),,21 µM,,15.5 µM,,22.9 µM,> 100 µM,8.79,44.5 µM,,,,,,,
CC(=O)Nc1ccccc1-c1nc2ccccc2nc1-c1ccccc1,> 100 µM,> 100 µM,> 100 µM,> 100 µM,> 100 µM,> 100 µM,> 100 µM,> 100,> 100 µM,,,,,,,
CC(C)N(C(=O)C12C3C4C1C1C2C3C41C(=O)C(C)(C)C)C(C)C (centres undefined),> 100 µM,> 100 µM,63.7 µM,> 100 µM,,> 100 µM,> 100 µM,,> 100 µM,,,,,,,
